Data published in PMC10591846 (Cell reports, 2023).

Columns and labels:
[1] = molecular target: T1, Pirh2 (Homo sapiens, UniProt Q96PM5); assay: In vitro peptide binding to Pirh2; conditions: Figure S12
T1 sequence (Q96PM5 1-261): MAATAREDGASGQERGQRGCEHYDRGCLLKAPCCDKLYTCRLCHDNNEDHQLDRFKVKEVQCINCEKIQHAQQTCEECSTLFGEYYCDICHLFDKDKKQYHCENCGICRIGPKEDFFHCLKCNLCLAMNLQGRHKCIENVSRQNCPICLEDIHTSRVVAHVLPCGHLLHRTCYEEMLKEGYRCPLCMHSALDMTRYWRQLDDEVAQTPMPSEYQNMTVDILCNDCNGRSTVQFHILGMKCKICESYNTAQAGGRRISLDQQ

[2] = system: KLHDC10; assay: In vitro peptide binding to KLHDC10; conditions: Figure S12

- binding to Pirh2 in vitro [1]: did not bind
- binding to KLHDC10 in vitro [2]: did not bind
Sequence: KHKLEQLRNSCA
